Compound: Cc1nc(NC(=O)N2CCC[C@H]2C(N)=O)sc1-c1ccnc(C(C)(C)C(F)(F)F)c1 [Alpelisib] + COc1cc2c(Oc3ccc(NC(=O)C4(C(=O)Nc5ccc(F)cc5)CC4)cc3F)ccnc2cc1OCCCN1CCOCC1 [Foretinib] (partner 0.25 µM)
Assay: relative viability (nuclei count vs DMSO), 5 days (fraction); higher = more cells survive
Details: first compound 4 µM
Method in brief: (§1)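 Relative viability was taken as the ratio of nuclei in treated wells to nuclei in vehicle wells. Lung cancer cell lines in 1536-well plates received compounds by pin tool one day after seeding, either one drug alone or a fixed anchor-drug dose plus five library-drug doses (not always all listed) in √10 steps. Nuclei were counted on 4× images after 5 days of treatment, and values are medians of duplicate plates.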

Cell Line	relative viability
NCI-H1793	0.42
NCI-H2342	0.753
H3255	0.562
NCI-H1975	0.57
PC-14	0.832
NCI-H1299	1.12
NCI-H1437	1.31
HOP-62	0.978
BEN	0.521
LOU-NH91	0.754
NCI-H661	0.92
NCI-H1651	0.741
PC-3 [JPC-3]	0.971
SW 1573	0.724
LK-2	0.932
NCI-H2405	0.711

Cell Line	relative viability
NCI-H1703	0.303
NCI-H1993	0.55
ChaGo-K-1	0.8
NCI-H1355	0.77
HCC-366	0.349
NCI-H1915	1.09
NCI-H838	0.871
A-427	0.992
NCI-H2009	1.1
ABC-1	0.78
EKVX	0.73
NCI-H2087	0.614
NCI-H2170	0.622
NCI-H1563	0.748
SW 900	0.843

Compound: CCCS(=O)(=O)Nc1ccc(F)c(C(=O)c2c[nH]c3ncc(-c4ccc(Cl)cc4)cc23)c1F [Vemurafenib] + Cc1nc(NC(=O)N2CCC[C@H]2C(N)=O)sc1-c1ccnc(C(C)(C)C(F)(F)F)c1 [Alpelisib] (partner 2 µM)
Assay: as above
Details: first compound 0.03162 µM
Method in brief: as §1

Cell Line	relative viability
NCI-H2126	0.718
EPLC-272H	0.927
NCI-H1755	0.906
NCI-H2023	0.614
NCI-H1793	0.659
H3255	0.688
NCI-H1975	0.582
PC-14	0.881
NCI-H1299	1.05
NCI-H1437	0.915
HOP-62	1.09
HCC-44	0.761
BEN	0.966
LOU-NH91	0.713
NCI-H661	0.43
NCI-H1651	0.903
PC-3 [JPC-3]	0.985

Cell Line	relative viability
SW 1573	0.769
LK-2	1.07
NCI-H2405	0.708
NCI-H1703	0.353
NCI-H1993	0.62
NCI-H1355	0.823
HCC-366	0.417
NCI-H1915	1.02
NCI-H838	0.879
A-427	1.02
NCI-H2009	1.16
ABC-1	0.916
EKVX	0.821
NCI-H2087	1.08
NCI-H2170	0.735
NCI-H1563	0.874
NCI-H1792	0.624

Same assay, conditions: first compound 0.1 µM

Cell Line	relative viability
NCI-H2126	0.709
EPLC-272H	0.676
NCI-H1755	0.83
NCI-H2023	0.524
NCI-H1975	0.608
NCI-H1299	1.05
NCI-H1437	0.96
HOP-62	0.954
HCC-44	0.755
BEN	0.98
LOU-NH91	0.487
NCI-H661	0.478
NCI-H1651	0.831
SW 1573	0.667
LK-2	1.07
NCI-H2405	0.675
NCI-H1703	0.318
NCI-H1355	0.689
HCC-366	0.391
NCI-H1915	1.04
NCI-H838	0.957
A-427	1.09
NCI-H2009	1.1
ABC-1	0.878
NCI-H2087	1.02
NCI-H2170	0.301
NCI-H1563	0.935
NCI-H1792	0.673

Same assay, conditions: first compound 0.3162 µM

Cell Line	relative viability
NCI-H2126	0.758
EPLC-272H	0.942
NCI-H1755	0.869
NCI-H2023	0.749
NCI-H1793	0.758
H3255	0.643
NCI-H1975	0.526
PC-14	0.907
NCI-H1299	0.928
NCI-H1437	0.842
HOP-62	0.928
HCC-44	0.784
BEN	0.793
NCI-H661	0.409
NCI-H1651	0.896
PC-3 [JPC-3]	1.11
SW 1573	0.781
LK-2	1.22
NCI-H1703	0.292
NCI-H1993	0.585
NCI-H1355	0.797
NCI-H1915	1.03
A-427	1.11
NCI-H2009	1.02
ABC-1	1.25
EKVX	0.904
NCI-H2170	0.692
NCI-H1563	0.904
NCI-H1792	0.61

Same assay, conditions: first compound 1 µM

Cell Line	relative viability
NCI-H2126	0.789
EPLC-272H	0.889
NCI-H1755	0.791
NCI-H2023	0.538
NCI-H1793	0.808
H3255	0.663
NCI-H1975	0.629
PC-14	0.903
NCI-H1299	0.985
NCI-H1437	0.901
HOP-62	0.808
HCC-44	0.795
BEN	0.784
LOU-NH91	0.734
NCI-H661	0.58
NCI-H1651	0.909
PC-3 [JPC-3]	1.07

Cell Line	relative viability
SW 1573	0.551
LK-2	0.706
NCI-H2405	0.785
NCI-H1703	0.301
NCI-H1993	0.647
NCI-H1355	0.88
HCC-366	0.379
NCI-H1915	0.993
NCI-H838	1.04
A-427	1.14
NCI-H2009	1.11
ABC-1	1.14
EKVX	0.777
NCI-H2087	1.07
NCI-H2170	0.712
NCI-H1563	0.949

From the supplement of paper PMC10307832
